From patent US11530244B2, “Cyclic polypeptides for PCSK9 inhibition” (priority 2018, dated 2022)
Where two headings read alike, the source gives them in different places. Starred links: 1 amine or outer side, 2 acyl side, 3 side chain; linkers in the order of their positions; H or OH if unused. Positions of bridges follow the written chain, without caps; N, C: chain ends. Non-standard residues stand in square brackets, D forms with d. Residues, ends and D or L forms follow the SMILES beside them. Triazole bridges read from a SMILES are 1,4-linked. Pro(cis-4-Ph) = O=C(O)[C@@H]1C[C@H](c2ccccc2)CN1; Trp(5-F) = N[C@@H](Cc1c[nH]c2ccc(F)cc12)C(=O)O; Asp(3,3-Me2) = CC(C)(C(=O)O)[C@H](N)C(=O)O; Leu(3R-OH) = CC(C)[C@@H](O)[C@H](N)C(=O)O; NMeW = CN[C@@H](Cc1c[nH]c2ccccc12)C(=O)O; Lys(N3) = [N-]=[N+]=NCCCC[C@H](N)C(=O)O; X4 = O=C(CCSCc1cccc(CSCCN[*:1])c1)[*:2]; mXylylene = c1cc(C[*:1])cc(C[*:2])c1; NMeY = CN[C@@H](Cc1ccc(O)cc1)C(=O)O; X8 = Clc1cc(C[*:1])cc(C[*:2])c1; αMeP = C[C@@]1(C(=O)O)CCCN1; Hpra = C#CCC[C@H](N)C(=O)O; Mpa = O=C(O)CCS

Experiments:
[1] = biological target: human PCSK9 / human LDLR EGFa domain interaction (Homo sapiens (Human), UniProt Q8NBP7); assay: TR-FRET assay of inhibition of the PCSK9-LDLR protein-protein interaction; format: binding
In short: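 Readout is the TR-FRET signal between europium anti-6×His on his-tagged LDLR EGFa domain and Ulight streptavidin on biotinylated PCSK9, both proteins at 20 nM and both detection reagents at 5 nM. Incubation lasted 2 hours at room temperature; compounds were run in dose-response with a 4-parameter fit.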

[2] = biological target: PCSK9 (Homo sapiens (Human), UniProt Q8NBP7); assay: PCSK9 Alexa FRET Standard assay (displacement of AlexaFluor647 tagged cyclic peptide Reagent A); format: binding
In short: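 TR-FRET displacement: 0.5 nM biotinylated PCSK9 with 1.25 nM Strep-Eu and 20 nM AlexaFluor-tagged cyclic peptide (final) in 50 mM HEPES pH 7.4, 0.15 M NaCl, 5 mM CaCl2, 0.01% BSA, 0.01% P20, ≥2 h at room temperature. IC50 from sigmoidal fit, converted to Ki via peptide KD; falling Eu counts flagged false positives.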

[3] = TR-FRET, 20 nM human PCSK9, 20 nM human LDLR EGFa domain, 2 hours room temperature, read-out: IC50
[4] = PCSK9 Alexa FRET Standard assay, 0.5 nM PCSK9, 20 nM AF cyclic peptide Reagent A, read-out: IC50

Chain of PCSK9 (Q8NBP7 153-692): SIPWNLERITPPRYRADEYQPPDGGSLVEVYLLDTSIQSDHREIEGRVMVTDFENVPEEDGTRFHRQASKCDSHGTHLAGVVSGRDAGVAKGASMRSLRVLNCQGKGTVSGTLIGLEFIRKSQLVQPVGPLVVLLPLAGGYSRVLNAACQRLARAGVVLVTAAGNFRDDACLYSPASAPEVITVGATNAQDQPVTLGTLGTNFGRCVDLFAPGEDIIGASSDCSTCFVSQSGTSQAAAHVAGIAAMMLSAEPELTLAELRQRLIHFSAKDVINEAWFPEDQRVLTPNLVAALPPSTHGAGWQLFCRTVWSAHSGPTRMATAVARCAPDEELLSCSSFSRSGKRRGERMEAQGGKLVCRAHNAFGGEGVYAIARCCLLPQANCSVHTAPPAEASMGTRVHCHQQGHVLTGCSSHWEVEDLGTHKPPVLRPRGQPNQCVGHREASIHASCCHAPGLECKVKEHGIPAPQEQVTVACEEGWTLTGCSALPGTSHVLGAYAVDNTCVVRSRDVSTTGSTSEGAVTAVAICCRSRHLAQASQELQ
Chain of human PCSK9 / human LDLR EGFa domain interaction (Q8NBP7 153-692): as above
Chain of human PCSK9 / human LDLR EGFa domain interaction (Q8NBP7 31-152 partner): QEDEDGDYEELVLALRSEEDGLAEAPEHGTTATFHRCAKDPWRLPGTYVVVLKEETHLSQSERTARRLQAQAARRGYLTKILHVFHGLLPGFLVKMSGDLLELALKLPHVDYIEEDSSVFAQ

Structure (SMILES) | IC50 [1, 3] | IC50 [2, 4] | IC50 [1] | IC50 ([2]; IC50)
COc1ccc(C[C@@H]2NC(=O)[C@H](Cc3cnc[nH]3)NC(=O)[C@H](CC(=O)O)NC(=O)[C@H](Cc3c[nH]c4cc(F)ccc34)NC(=O)[C@H](Cc3c[nH]c4ccc(F)cc34)NC(=O)[C@@H](C)NC(=O)[C@H](CCCCN)NC(=O)CCCc3cn(nn3)-c3ccc(cc3)C[C@@H](C(N)=O)NC(=O)[C@]3(C)CCCN3C2=O)cc1 [Compound 369] | 0.1 to 100 nM | 100 to 1000 nM |  | 
C[C@H]1NC(=O)[C@H](CCCCN)NC(=O)CCSCc2cccc(c2)CSCCNC(=O)[C@]2(C)CCCN2C(=O)[C@H](Cc2ccc(O)cc2)N(C)C(=O)[C@H](Cc2c[nH]cn2)NC(=O)[C@H](CC(=O)O)NC(=O)[C@H](Cc2c[nH]c3ccc(F)cc23)NC(=O)[C@H](Cc2c[nH]c3ccccc23)N(C)C1=O [Compound 276] (cyclo(DH[NMeY][αMeP][X4]K[dA][NMeW][Trp(5-F)])) |  |  | 0.1 to 100 nM | 100 to 1000 nM
COc1ccc(C[C@@H]2NC(=O)[C@H]([C@@H](C)O)NC(=O)[C@@H]3CCCN3C(=O)[C@H](Cc3c[nH]c4ccc(F)cc34)NC(=O)[C@H](Cc3c[nH]c4ccc(F)cc34)NC(=O)[C@@H](C)NC(=O)[C@H](CCCCN)NC(=O)CCSCc3cc(Cl)cc(c3)CSC[C@@H](C(N)=O)NC(=O)[C@]3(C)CCCN3C2=O)cc1 [Compound 064] ([Mpa]K[dA][Trp(5-F)][Trp(5-F)]PTY(Me)[αMeP]C-NH2; linker 1-10 via X8) | 1000 to 12100 nM | 1000 to 12100 nM |  | 
COc1ccc(C[C@@H]2NC(=O)[C@H]([C@@H](C)O)NC(=O)[C@]3(C)CCCN3C(=O)[C@H](Cc3c[nH]c4ccc(F)cc34)NC(=O)[C@H](Cc3c[nH]c4ccc(F)cc34)NC(=O)[C@@H](C)NC(=O)[C@H](CCCCN)NC(=O)CCSCc3cccc(c3)CSCCNC(=O)[C@]3(C)CCCN3C2=O)cc1 [Compound 025] (cyclo(K[dA][Trp(5-F)][Trp(5-F)][αMeP]TY(Me)[αMeP][X4])) | 100 to 1000 nM | 100 to 1000 nM |  | 
CC(C)[C@@H](O)[C@@H]1NC(=O)[C@@H]2CCCN2C(=O)[C@H](Cc2c[nH]c3ccc(F)cc23)NC(=O)[C@H](Cc2c[nH]c3ccc(F)cc23)NC(=O)CNC(=O)[C@H](CCCCN)NC(=O)CCSCc2cccc(c2)CSC[C@@H](C(N)=O)NC(=O)[C@]2(C)CCCN2C(=O)[C@H](Cc2ccc(O)cc2)NC1=O [Compound 049] ([Mpa]KG[Trp(5-F)][Trp(5-F)]P[Leu(3R-OH)]Y[αMeP]C-NH2; linker 1-10 via mXylylene) | 100 to 1000 nM | 100 to 1000 nM |  | 
NCCCC[C@@H]1NC(=O)CCSCc2cccc(c2)CSC[C@@H](C(N)=O)NC(=O)[C@@H]2C[C@H](c3ccccc3)CN2C(=O)[C@H](Cc2ccc(O)cc2)NC(=O)[C@H](Cc2cnc[nH]2)NC(=O)[C@H](CC(=O)O)NC(=O)[C@H](Cc2c[nH]c3ccc(F)cc23)NC(=O)[C@H](Cc2c[nH]c3ccc(F)cc23)NC(=O)CNC1=O [Compound 329] ([Mpa]KG[Trp(5-F)][Trp(5-F)]DHY[Pro(cis-4-Ph)]C-NH2; linker 1-10 via mXylylene) | 100 to 1000 nM | 100 to 1000 nM |  | 

The next lines start with results.

IC50 [1, 3] | IC50 [2, 4] | Structure (SMILES) | IC50 [1] | IC50 ([2]; IC50)
0.1 to 100 nM | 100 to 1000 nM | C[C@H]1NC(=O)[C@H](CCCCN)NC(=O)CCSCc2cccc(c2)CSCCNC(=O)[C@]2(C)CCCN2C(=O)[C@H](Cc2ccc(O)cc2)N(C)C(=O)[C@H](Cc2c[nH]cn2)NC(=O)[C@H](C(C)(C)C(=O)O)NC(=O)[C@H](Cc2c[nH]c3ccc(F)cc23)NC(=O)[C@H](Cc2c[nH]c3ccc(F)cc23)NC1=O [Compound 383] (cyclo(H[NMeY][αMeP][X4]K[dA][Trp(5-F)][Trp(5-F)][Asp(3,3-Me2)])) |  | 
100 to 1000 nM | 100 to 1000 nM | C[C@@H](O)[C@@H]1NC(=O)[C@H](Cc2c[nH]c3ccc(F)cc23)NC(=O)[C@H](Cc2c[nH]c3ccc(F)cc23)NC(=O)CNC(=O)[C@H](CCCCN)NC(=O)CCSCc2cccc(c2)CSC[C@@H](C(N)=O)NC(=O)[C@@H]2CCCN2C(=O)[C@H](Cc2ccc(O)cc2)NC(=O)[C@H](Cc2c[nH]cn2)NC1=O [Compound 224] ([Mpa]KG[Trp(5-F)][Trp(5-F)]THYPC-NH2; linker 1-10 via mXylylene) |  | 
0.1 to 100 nM | 100 to 1000 nM | CC(=O)N[C@H]1CCCCn2cc(nn2)CC[C@@H](C(N)=O)NC(=O)[C@]2(C)CCCN2C(=O)[C@H](Cc2ccc(O)cc2)NC(=O)[C@H](Cc2cnc[nH]2)NC(=O)[C@H](CC(=O)O)NC(=O)[C@H](Cc2c[nH]c3ccc(F)cc23)NC(=O)[C@H](Cc2c[nH]c3ccc(F)cc23)NC(=O)CNC(=O)[C@H](C)NC1=O [Compound 332] (Ac-[Lys(N3)]AG[Trp(5-F)][Trp(5-F)]DHY[αMeP][Hpra]-NH2; triazole 1-10) |  | 
